How the values were obtained:
[1] = Toxicity evaluation in normal mice (body weight, haematology, liver and kidney function); format: in vivo, BALB/c mice; conditions: 9 doses
Method: A total number of 10 BALB/c mice were used for the study, of which 5 animals served as normal control while, remaining 5 were treated with SS28 (15 mg/kg). Body weight of each animal was monitored throughout the experiment and average body weight was calculated on 21st day of treatment. In order to evaluate the effect of SS28 on physiological functions, blood was collected (21st day) and analysed as described earlier. The blood […] was analyzed using Neubauer’s chamber, and mean values of total red blood cells (RBCs) and white blood cells (WBCs) were determined. Serum was separated and kidney and liver function tests were performed for each animal, to determine alkaline phosphatase (ALP), […] (ALT), creatinine and urea levels as described earlier. Values are presented as mean ± SEM for both the controls and SS28 administered mice.

A549 cells [2] = test: Immunoblotting of cell cycle and apoptotic proteins; format: cell-based, human; conditions: A549, 5 μM, 24, 48 and 72 h
Method: (§1) Cell lysate was prepared after treating with SS28 (5 μM for 24, 48 and 72 h) from CEM and A549 cell lines. In brief, cells were harvested, washed with PBS, resuspended in lysis buffer (RIPA, 25 mM Tris (pH 7.6), 150 mM NaCl, 1% NP-40, 1% sodium deoxycholate and 0.1% SDS) containing protease inhibitors. The protein lysate was cleared by centrifugation (14,000 rpm, for 15 min). The protein concentration in the supernatant was determined using the Bradford’s assay.
(§2) For western blot analysis, ~40 μg proteins were resolved over 8–10% SDS–polyacrylamide gel[60][61][62]. Following gel electrophoresis, proteins were transferred to PVDF membrane (Millipore, USAQ9). The primary antibodies used were against Caspase 3, Caspase 9, p73, p53, KU70, KU80, Cyclin B1, CDK6, PARP1 and Actin (Santa Cruz Biotechnology, USA). The membrane was incubated with appropriate HRP-conjugated secondary antibody (2 h at 4° C). The blots were developed using chemiluminescent solution (Immobilon^TM western, Millipore) and scanned by gel documentation system (LAS 3000, FUJI, Japan). Blots were stripped subsequently as per standard protocols and reprobed with anti β-Actin antibody.

[3] = test system: Tubulin polymerisation in CEM cells; test: Cell based microtubule assembly (Tubulin polymerisation) assay; set-up: species or system Human; conditions: CEM, 2, 5 and 10 μM, 24 h, pellet fraction α-Tubulin immunoblot
Method: Separation of insoluble polymerized Tubulin from soluble Tubulin dimers was performed as described. In brief, CEM cells (1 × 10^6) were treated with 2, 5 and 10 μM of SS28 for 24 h. Cells were harvested and washed with PBS before adding polymerization lysate buffer containing 20 mM Tris-HCl (pH 6.8), 1 mM MgCl2, 2 mM EGTA, […], 1 mM phenylmethylsulfonyl fluoride, 1 mM orthovanadate and 0.5% NP-40. After centrifugation of the lysates at 15,000 × g for 10 min at 4 °C, the pellets were resuspended in SDS-PAGE loading buffer and dissolved by heating at 95 °C for 10 min. α-Tubulin was then immunoblotted for the pellet fraction containing polymerized microtubules and supernatants containing depolymerised microtubules were equalised and resolved on 8% SDS PAGE.

CEM cells = test: Immunoblotting of cell cycle and apoptotic proteins; format: cell-based, Human; conditions: 5 μM, 24, 48 and 72 h
Method: as §1, §2

EAC cells tumor = test: Antitumor activity in EAC solid tumor mouse model; format: in vivo; conditions: EAC tumor BALB/c mice, 15 mg/kg oral, nine doses every alternate day from 12th day, up to 28 days
Method: EAC cells were collected from donor mice (Swiss albino) and resuspended in sterile saline. A fixed number of viable cells were injected into the peritoneal cavity of each recipient mouse and were allowed to multiply. The cells were withdrawn, diluted in saline and injected (15 × 10^5 cells/animal) into the right thigh tissue of experimental animals for developing solid tumor.
A total number of 30 BALB/c mice were divided into three batches and were used for the present study. EAC cells (15 × 10^5 cells/animal) were injected into right thigh for the development of solid tumor as described previously. Among the 10 animals in each batch, 5 animals served as tumor control and the rest 5 animals received SS28 treatment (15 mg/kg b.wt.) by oral administration using gastric gavage. The dose used was selected based on preliminary studies. The first dose was given after 12th day of tumor development (9 doses over a period of 3 weeks). The diameter of developing tumor was measured using vernier calipers at alternative days for entire life span of tumor animal and tumor volume was calculated using the formula V = 0.5 × a × b^2, where “a” and “b” indicates the major and minor diameter, respectively.

A549 cells [4] = test: Immunofluorescence microscopy of spindle microtubule organisation; format: cell-based, human; conditions: 24 h
Method: Immunofluorescence microscopy was performed as previously described. A549 cells were grown on coverslips coated with gelatin (0.1%). […] After 24 h of the treatment nonspecific antibody binding sites were blocked using FBS following which cells were incubated with antitubulin antibody (1:500) at RT. Coverslips were washed in PBS, incubated in biotinylated antimouse secondary antibody (1:500; RT for 1 h) followed by Streptavidin-FITC (1:200). Finally, cells were mounted with DABCO and images were captured using Zeiss Fluorescence microscope and analyzed using Axio vision software. Colchicine treated cells were used as a positive control.

[5] = In vivo pharmacokinetics, HPLC of plasma; set-up: species or system BALB/c mice; conditions: mice, intraperitoneal, 15 mg/kg
Method: Control and SS28 (15 mg/kg b.wt.) treated BALB/c mice were sacrificed and blood was collected at various time points (15, 30 min, 1 and 2 h; 2 each/time point) as described. Plasma (50 μl) was then extracted with acetonitrile, centrifuged (3,000 × g for 15 min) to remove precipitated proteins and the resulting supernatants were analyzed using HPLC (Waters, USA).
Standard solution of SS28 was prepared by dissolving increasing concentration (25 to 100 μM) of the compound in acetonitrile. Standard calibration curves were plotted using peak area against the concentration of the compound and the retention time of the compound was also determined. Plasma concentrations of the treated groups were extrapolated from standard curves constructed by linear regression in Graph-Pad Prism 4.0 software (GraphPad Software, Inc.).

[6] = normal BALB/c mice, 15 mg/kg, 21st day, mean ± SEM

level of SS28 in the plasma ([5]; 15 min and 1 h post-treatment): detectable
level of SS28 in the plasma ([5]; 30 min after the injection): significant increase
level of SS28 in the plasma ([5]; after 1 h of treatment): significant decrease
Compound: COc1cc(/C=C/c2ccc(C)cc2)cc(OC)c1OC [SS28, (E)-1,2,3-trimethoxy-5-(4-methylstyryl)benzene]
body weight ([1]; normal BALB/c mice, 15 mg/kg oral): no significant difference
number of RBCs and WBCs versus control ([1]; normal BALB/c mice, 15 mg/kg, 21st day): no significant difference
RBC [1, 6]: 6.43 ± 1.32 10^6 cells/mm^3
WBC [1, 6]: 3.5 ± 0.99 10^3 cells/mm^3
ALP level versus control ([1]; serum, 15 mg/kg, 21st day): slightly higher
level of ALT versus control ([1]; serum, 15 mg/kg, 21st day): no significant difference
levels of creatinine and urea in the serum versus control ([1]; serum, 15 mg/kg, 21st day): no significant difference
Caspase 3 (A549 cells [2]): showed activation
Caspase 9 (A549 cells [2]): increase in the cleaved Caspase 9 level
expression level of Cdk6 (A549 cells [2]): increased at 24 h followed by a decrease at 48 and 72 h
expression levels of p73 (A549 cells [2]): remained same
level of Cyclin B1 (A549 cells [2]): maintained throughout the time period, but with a moderate decrease at 48 h
concentration from which Tubulin polymerisation was inhibited [3]: ≥ 2 µM
Caspase 3 (CEM cells): showed activation
Caspase 9 (CEM cells): increase in the cleaved Caspase 9 level
PARP1 (CEM cells): activation of PARP1
expression level of Cdk6 (CEM cells): increased at 24 h followed by a decrease at 48 and 72 h
expression levels of p53 (CEM cells): upregulation of p53 at 24 h time point followed by a decrease in the later time points
level of Cyclin B1 (CEM cells): increased at 48 h time point in CEM cells followed by a decrease at 72 h
tumor progression (tumor volume) (EAC cells tumor): no further tumor progression
cells displaying abnormal spindle organisation (A549 cells [4]; A549, 5 μM): ~ 38%
Metaphase arrest (number of cells) (A549 cells [4]; A549, 5 μM, total number of cells 78): 30
Metaphase arrest (number of cells) (A549 cells [4]; A549, 10 μM, total number of cells 387): 123

From PMC5066224, “A Novel Resveratrol Based Tubulin Inhibitor Induces Mitotic Arrest and Activates Apoptosis in Cancer Cells” (Scientific Reports, 2016)
